Source: patent US8501733B2, “Spiroaminodihydrothiazine derivatives” (Eisai R&D Management Co., Ltd., priority 2008, dated 2013)

Test system: Aβ42
Experiment: Quantification of Aβ peptide in culture of neurons from rat fetus brain (Aβ ELISA)
Assay type: cell-based
Settings: Primary cortical neuron, 72 h, IC50 for decrease in the Aβ42 concentration in the medium, three days after addition of the compound, read-out: Aβ42 production reducing effect
Description: Quantification of Aβ Peptide in Culture of Neurons from Rat Fetus Brain
(1) Rat Primary Neuronal Culture
Primary neuronal cultures were prepared from the cerebral cortex of embryonic day 18 Wistar rats (Charles River Japan, Yokohama, Japan). Specifically, the embryos were aseptically removed from pregnant rats under ether anesthesia. The brain was isolated from the embryo and immersed in an ice-cold L-15 medium (such as Invitrogen Corp. Cat #11415-064, Carlsbad, Calif., USA, or SIGMA L1518). The cerebral cortex was collected from the isolated brain under a stereoscopic microscope. The cerebral cortex fragments collected were enzymatically treated in an enzyme solution containing 0.25% trypsin (Invitrogen Corp. Cat #15050-065, Carlsbad, Calif., USA) and 0.01% DNase (Sigma D5025, St. Louis, Mo., USA) at 37° C. for 30 minutes to disperse the cells. Here, the enzymatic reaction was stopped by adding inactivated horse serum to the solution. The enzymatically treated solution was centrifuged at 1,500 rpm for five minutes to remove the supernatant. 5 to 10 ml of a medium was added to the resulting cell mass. Neurobasal medium (Invitrogen Corp. Cat #21103-049, Carlsbad, Calif., USA) supplemented with 2% B27 supplement (Invitrogen Corp. Cat #17504-044, Carlsbad, Calif., USA), 25 μM 2-mercaptoethanol (2-ME, WAKO Cat #139-06861, Osaka, Japan), 0.5 mM L-glutamine (Invitrogen Corp. Cat #25030-081, Carlsbad, Calif., USA), and Antibiotics-Antimycotics (Invitrogen Corp. Cat #15240-062, Carlsbad, Calif., USA) was used as the medium (Neurobasal/B27/2-ME). However, the above Neurobasal medium not supplemented with 2-ME (Neurobasal/B27) was used for the assay. The cells were redispersed by mild pipetting of the cell mass to which the medium was added. The cell dispersion was filtered through a 40-μm nylon mesh (Cell Strainer, Cat #35-2340, Becton Dickinson Labware, Franklin Lakes, N.J., USA) to remove the remaining cell mass, and thus a neuronal cell suspension was obtained. The neuronal cell suspension was diluted with the medium and then plated in a volume of 100 μl/well at an initial cell density of 5×10^5 cells/cm^2 in a 96-well polystyrene culture plate pre-coated with poly-L or D-lysine (Falcon Cat #35-3075, Becton Dickinson Labware, Franklin Lakes, N.J., USA coated with poly-L-lysine using the method shown below, or BIOCOAT™ cell environments Poly-D-lysine cell ware 96-well plate, Cat #35-6461, Becton Dickinson Labware, Franklin Lakes, N.J., USA). Poly-L-lysine coating was carried out as follows. 100 μg/ml of a poly-L-lysine (SIGMA P2636, St. Louis, Mo., USA) solution was aseptically prepared with a 0.15 M borate buffer (pH 8.5). […] of the solution was added to the 96-well polystyrene culture plate and incubated at room temperature for one or more hours or at 4° C. overnight or longer. Thereafter, the coated 96-well polystyrene culture plate was washed with sterile water four or more times, and then dried or rinsed with, for example, sterile PBS or medium, and used for cell plating. The plated cells were cultured in the incubator at 37° C. in 5% CO2-95% air for one day. Then, the total amount of the medium was replaced with a fresh Neurobasal/B27/2-ME medium, and then the cells were cultured for further three days.
The drug was added to the culture plate on Day 4 of culture as follows. The total amount of the medium was removed from the wells, and 180 μl/well of Neurobasal medium not containing 2-ME and containing 2% B-27 (Neurobasal/B27) was added thereto. […]

| Structure (SMILES) | IC50 |
| --- | --- |
| N#Cc1ccc(C(=O)Nc2ccc3c(c2)C2(CCO3)CCSC(N)=N2)nc1 (stereo not drawn) [Compound 11, (−)—N-(2′-amino-2,3,5′,6′-tetrahydrospiro[chromene-4,4′-[1,3]thiazin]-6-yl)-5-cyanopyridine-2-carboxamide] | 53 nM |
| NC1=NC2(CCOc3ccc(NC(=O)c4ccc(C(F)(F)F)cn4)cc32)CCS1 (centres unmarked) [Compound 12, N-(2′-amino-2,3,5′,6′-tetrahydrospiro[chromene-4,4′-[1,3]thiazin]-6-yl)-5-trifluoromethylpyridine-2-carboxamide] | 71 nM |
| NC1=NC2(CCOc3ccc(NC(=O)c4ncc(Br)cn4)cc32)CCS1 (centres unmarked) [Compound 15, N-(2′-amino-2,3,5′,6′-tetrahydrospiro[chromene-4,4′-[1,3]thiazin]-6-yl)-5-bromopyrimidine-2-carboxamide] | 63 nM |

Results, then the molecule that gave them:

| IC50 | Structure (SMILES) |
| --- | --- |
| 27 nM | NC1=NC2(CCOc3ccc(NC(=O)c4ccc(Br)cn4)cc32)CCS1 (centres unmarked) [Compound 16, N-(2′-amino-2,3,5′,6′-tetrahydrospiro[chromene-4,4′-[1,3]thiazin]-6-yl)-5-bromopyridine-2-carboxamide] |
| 47 nM | NC1=NC2(CCOc3ccc(NC(=O)c4ncc(Cl)cc4Cl)cc32)CCS1 (centres unmarked) [Compound 18, N-(2′-amino-2,3,5′,6′-tetrahydrospiro[chromene-4,4′-[1,3]thiazin]-6-yl)-3,5-dichloropyridine-2-carboxamide] |
